Source: patent US9708334B2, “Substituted 2,4,5,6-tetrahydropyrrolo[3,4-c]pyrazole and 4,5,6,7-tetrahydro-2H-pyrazolo[4,3-c]pyridine compounds as GlyT1 inhibitors” (DART NEUROSCIENCE (CAYMAN) LTD., priority 2014, dated 2017)

Biological target: T1, GlyT1 (Homo sapiens, UniProt P48067)
T1 construct: expressed in transfected cells
T1 sequence (P48067 1-706): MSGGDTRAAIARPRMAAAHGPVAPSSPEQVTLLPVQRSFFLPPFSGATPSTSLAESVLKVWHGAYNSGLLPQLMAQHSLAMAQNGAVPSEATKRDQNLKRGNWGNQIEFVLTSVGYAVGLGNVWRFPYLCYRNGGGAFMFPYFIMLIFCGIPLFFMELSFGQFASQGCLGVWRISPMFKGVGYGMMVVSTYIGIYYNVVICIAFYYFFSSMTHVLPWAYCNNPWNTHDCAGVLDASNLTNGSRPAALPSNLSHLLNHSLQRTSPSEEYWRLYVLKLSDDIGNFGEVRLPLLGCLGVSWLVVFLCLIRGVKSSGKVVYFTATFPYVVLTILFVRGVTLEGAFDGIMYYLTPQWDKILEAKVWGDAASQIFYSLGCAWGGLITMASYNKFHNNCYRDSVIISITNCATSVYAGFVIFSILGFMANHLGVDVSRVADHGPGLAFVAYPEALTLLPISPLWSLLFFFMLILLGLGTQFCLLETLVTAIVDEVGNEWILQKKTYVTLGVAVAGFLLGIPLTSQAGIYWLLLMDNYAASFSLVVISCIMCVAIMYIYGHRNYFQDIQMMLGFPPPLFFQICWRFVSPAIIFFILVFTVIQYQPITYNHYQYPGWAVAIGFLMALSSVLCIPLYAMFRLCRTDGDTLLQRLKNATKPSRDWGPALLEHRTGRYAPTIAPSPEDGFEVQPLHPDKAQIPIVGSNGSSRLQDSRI
Assay: Glycine Transporter 1 (GlyT1) uptake assay, scintillation proximity assay of [14C]-glycine uptake
Format: cell-based
Settings: SPA, four parameter logistic fit, read-out: GlyT1 (pIC50) (converted)
How it was run: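 [14C]-glycine uptake read by scintillation proximity on a plate counter. IC50 from four-parameter logistic fit of dose-response data.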

Row | IC50 | SMILES
1 | 100 to 1000 nM | COc1c(C#N)ccc(O[C@@H](C)C(F)(F)F)c1C(=O)N1CCc2[nH]nc(-c3ccc(C(F)(F)F)cc3)c2C1 [Example 257, 2-Methoxy-3-{3[4-(trifluoromethyl)phenyl]-1H 4H 5H 6H 7H-pyrazolo[4,3-c]pyridine-5-carbonyl}-4-{[(2S)-1 1 1-trifluoropropan-2-yl]oxy}benzonitrile]
2 | 100 to 1000 nM | COc1c(C#N)ccc(C2(F)CCC2)c1C(=O)N1Cc2cn(-c3ccc(F)cn3)nc2C1 [Example 258, 4-(1-Fluorocyclobutyl)-3-[2-(5-fluoropyridin-2-yl)-2H 4H 5H 6H-pyrrolo[3,4-c]pyrazole-5-carbonyl]-2-methoxybenzonitrile]
3 | 100 to 1000 nM | COc1c(C#N)ccc(C2(F)CCOCC2)c1C(=O)N1Cc2cn(-c3ccc(F)cn3)nc2C1 [Example 259, 4-(4-Fluorooxan-4-yl)-3-[2-(5-fluoropyridin-2-yl)-2H 4H 5H 6H-pyrrolo[3,4-c]pyrazole-5-carbonyl]-2-methoxybenzonitrile]
4 | 100 to 1000 nM | COc1c(C#N)ccc(OCC(F)(F)F)c1C(=O)N1Cc2cn(-c3ccc(F)cn3)nc2C1 [Example 260, 3-[2-(5-Fluoropyridin-2-yl)-2H 4H 5H 6H-pyrrolo[3,4-c]pyrazole-5-carbonyl]-2-methoxy-4-(2 2 2-trifluoroethoxy)benzonitrile]
5 | < 100 nM | COc1c(C#N)ccc(O[C@@H](C)C(F)(F)F)c1C(=O)N1Cc2cn(-c3ncccc3F)nc2C1 [Example 261]
6 | < 100 nM | C[C@H](Oc1ccc(C#N)c(Cl)c1C(=O)N1Cc2cn(-c3ncccc3F)nc2C1)C(F)(F)F [Example 262, 2-Chloro-3-[2-(3-fluoropyridin-2-yl)-2H 4H 5H 6H-pyrrolo[3,4-c]pyrazole-5-carbonyl]-4-{[(2S)-1 1 1-trifluoropropan-2-yl]oxy}benzonitrile]
7 | < 100 nM | COc1c(C#N)ccc(O[C@@H](C)C(F)(F)F)c1C(=O)N1Cc2cn(-c3ccccn3)nc2C1 [Example 263, 2-Methoxy-3-[2-(pyridin-2-yl)-2H 4H 5H 6H-pyrrolo[3,4-c]pyrazole-5-carbonyl]-4-{[(2S)-1 1 1-trifluoropropan-2-yl]oxy}benzonitrile]
8 | < 100 nM | C[C@H](Oc1ccc(C#N)c(Cl)c1C(=O)N1Cc2cn(-c3ccccn3)nc2C1)C(F)(F)F [Example 264]
9 | 100 to 1000 nM | Cc1ccc(-n2cc3c(n2)CN(C(=O)c2c(O[C@@H](C)C(F)(F)F)ccc(C#N)c2Cl)C3)cn1 [Example 265, 2-Chloro-3-[2-(6-methylpyridin-3-yl)-2H 4H 5H 6H-pyrrolo[3,4-c]pyrazole-5-carbonyl]-4-{[(2S)-1 1 1-trifluoropropan-2-yl]oxy}benzonitrile]
10 | < 100 nM | COc1c(C#N)ccc(O[C@@H](C)C(F)(F)F)c1C(=O)N1Cc2cn(-c3ccc(C)nc3)nc2C1 [Example 266, 2-Methoxy-3-[2-(6-methylpyridin-3-yl)-2H 4H 5H 6H-pyrrolo[3,4-c]pyrazole-5-carbonyl]-4-{[(2S)-1 1 1-trifluoropropan-2-yl]oxy}benzonitrile]
11 | < 100 nM | C[C@H](Oc1ccc(C#N)c(Cl)c1C(=O)N1Cc2cn(-c3cccc(F)c3)nc2C1)C(F)(F)F [Example 267, 2-Chloro-3-[2-(3-fluorophenyl)-2H 4H 5H 6H-pyrrolo[3,4-c]pyrazole-5-carbonyl]-4-{[(2S)-1 1 1-trifluoropropan-2-yl]oxy}benzonitrile]
12 | < 100 nM | COc1c(C#N)ccc(O[C@@H](C)C(F)(F)F)c1C(=O)N1Cc2cn(-c3cccc(F)c3)nc2C1 [Example 268, 3-[2-(3-Fluorophenyl)-2H 4H 5H 6H-pyrrolo[3,4-c]pyrazole-5-carbonyl]-2-methoxy-4-{[(2S)-1 1 1-trifluoropropan-2-yl]oxy}benzonitrile]
13 | < 100 nM | C[C@H](Oc1ccc(C#N)c(Cl)c1C(=O)N1Cc2cn(-c3ccccc3F)nc2C1)C(F)(F)F [Example 269, 2-Chloro-3-[2-(2-fluorophenyl)-2H 4H 5H 6H-pyrrolo[3,4-c]pyrazole-5-carbonyl]-4-{[(2S)-1 1 1-trifluoropropan-2-yl]oxy}benzonitrile]
14 | < 100 nM | COc1c(C#N)ccc(O[C@@H](C)C(F)(F)F)c1C(=O)N1Cc2cn(-c3ccccc3F)nc2C1 [Example 270, 3-[2-(2-Fluorophenyl)-2H 4H 5H 6H-pyrrolo[3,4-c]pyrazole-5-carbonyl]-2-methoxy-4-{[(2S)-1 1 1-trifluoropropan-2-yl]oxy}benzonitrile]
15 | 100 to 1000 nM | Cc1cccnc1-n1cc2c(n1)CN(C(=O)c1c(O[C@@H](C)C(F)(F)F)ccc(C#N)c1Cl)C2 [Example 271, 2-Chloro-3-[2-(3-methylpyridin-2-yl)-2H 4H 5H 6H-pyrrolo[3,4-c]pyrazole-5-carbonyl]-4-{[(2S)-1 1 1-trifluoropropan-2-yl]oxy}benzonitrile]
16 | < 100 nM | COc1c(C#N)ccc(O[C@@H](C)C(F)(F)F)c1C(=O)N1Cc2cn(-c3ncccc3C)nc2C1 [Example 272, 2-Methoxy-3-[2-(3-methylpyridin-2-yl)-2H 4H 5H 6H-pyrrolo[3,4-c]pyrazole-5-carbonyl]-4-{[(2S)-1 1 1-trifluoropropan-2-yl]oxy}benzonitrile]
17 | < 100 nM | Cc1ccnc(-n2cc3c(n2)CN(C(=O)c2c(O[C@@H](C)C(F)(F)F)ccc(C#N)c2Cl)C3)c1 [Example 273, 2-Chloro-3-[2-(4-methylpyridin-2-yl)-2H 4H 5H 6H-pyrrolo[3,4-c]pyrazole-5-carbonyl]-4-{[(2S)-1 1 1-trifluoropropan-2-yl]oxy}benzonitrile]
18 | < 100 nM | COc1c(C#N)ccc(O[C@@H](C)C(F)(F)F)c1C(=O)N1Cc2cn(-c3cc(C)ccn3)nc2C1 [Example 274, 2-Methoxy-3-[2-(4-methylpyridin-2-yl)-2H 4H 5H 6H-pyrrolo[3,4-c]pyrazole-5-carbonyl]-4-{[(2S)-1 1 1-trifluoropropan-2-yl]oxy}benzonitrile]
19 | < 100 nM | COc1cccc(-n2cc3c(n2)CN(C(=O)c2c(O[C@@H](C)C(F)(F)F)ccc(C#N)c2OC)C3)n1 [Example 275, 2-Methoxy-3-[2-(6-methoxypyridin-2-yl)-2H 4H 5H 6H-pyrrolo[3,4-c]pyrazole-5-carbonyl]-4-{[(2S)-1 1 1-trifluoropropan-2-yl]oxy}benzonitrile]
20 | < 100 nM | COc1cccc(-n2cc3c(n2)CN(C(=O)c2c(O[C@@H](C)C(F)(F)F)ccc(C#N)c2Cl)C3)n1 [Example 276, 2-Chloro-3-[2-(6-methoxypyridin-2-yl)-2H 4H 5H 6H-pyrrolo[3,4-c]pyrazole-5-carbonyl]-4-{[(2S)-1 1 1-trifluoropropan-2-yl]oxy}benzonitrile]
21 | < 100 nM | COc1cc(-n2cc3c(n2)CN(C(=O)c2c(O[C@@H](C)C(F)(F)F)ccc(C#N)c2OC)C3)ccn1 [Example 277, 2-Methoxy-3-[2-(2-methoxypyridin-4-yl)-2H 4H 5H 6H-pyrrolo[3,4-c]pyrazole-5-carbonyl]-4-{[(2S)-1 1 1-trifluoropropan-2-yl]oxy}benzonitrile]
22 | < 100 nM | COc1c(C#N)ccc(O[C@@H](C)C(F)(F)F)c1C(=O)N1Cc2cn(-c3ccc(C)cn3)nc2C1 [Example 278, 2-Methoxy-3-[2-(5-methylpyridin-2-yl)-2H 4H 5H 6H-pyrrolo[3,4-c]pyrazole-5-carbonyl]-4-{[(2S)-1 1 1-trifluoropropan-2-yl]oxy}benzonitrile]
23 | < 100 nM | C[C@H](Oc1ccc(C#N)c(Cl)c1C(=O)N1Cc2cn(-c3cnn(C)c3)nc2C1)C(F)(F)F [Example 279, 2-Chloro-3-[2-(1-methyl-1H-pyrazol-4-yl)-2H 4H 5H 6H-pyrrolo[3,4-c]pyrazole-5-carbonyl]-4-{[(2S)-1 1 1-trifluoropropan-2-yl]oxy}benzonitrile]
24 | 100 to 1000 nM | COc1c(C#N)ccc(O[C@@H](C)C(F)(F)F)c1C(=O)N1Cc2cn(-c3cn(C)c(C)n3)nc2C1 [Example 280, 3-[2-(1 2-Dimethyl-1H-imidazol-4-yl)-2H 4H 5H 6H-pyrrolo[3,4-c]pyrazole-5-carbonyl]-2-methoxy-4-{[(2S)-1 1 1-trifluoropropan-2-yl]oxy}benzonitrile]
25 | 100 to 1000 nM | COc1c(C#N)ccc(O[C@@H](C)C(F)(F)F)c1C(=O)N1Cc2cnn(-c3cn(C)c(C)n3)c2C1 [Example 281, 3-[1-(1 2-Dimethyl-1H-imidazol-4-yl)-1H 4H 5H 6H-pyrrolo[3,4-c]pyrazole-5-carbonyl]-2-methoxy-4-{[(2S)-1 1 1-trifluoropropan-2-yl]oxy}benzonitrile]
26 | 100 to 1000 nM | Cc1nc(-n2cc3c(n2)CN(C(=O)c2c(O[C@@H](C)C(F)(F)F)ccc(C#N)c2Cl)C3)cn1C [Example 282, 2-Chloro-3-[2-(1 2-dimethyl-1H-imidazol-4-yl)-2H 4H 5H 6H-pyrrolo[3,4-c]pyrazole-5-carbonyl]-4-{[(2S)-1 1 1-trifluoropropan-2-yl]oxy}benzonitrile]
27 | < 100 nM | COc1c(C#N)ccc(O[C@@H](C)C(F)(F)F)c1C(=O)N1Cc2cn(-c3ccc(C#N)cc3)nc2C1 [Example 283, 3-[2-(4-Cyanophenyl)-2H 4H 5H 6H-pyrrolo[3,4-c]pyrazole-5-carbonyl]-2-methoxy-4-{[(2S)-1 1 1-trifluoropropan-2-yl]oxy}benzonitrile]
